Where a SMILES comes first, the peptide text is derived from it.
System: leukemia (K562) cell line
Test: Cell viability (MTT assay)
Assay type: cell-based, human
Settings: 100 µM, 24 hrs exposure, absorbance 540 nm, cutoff 20%, mean of four independent experiments
Description: Dulbecco’s modified Eagle medium (DMEM) supplemented with 10% fetal bovine serum (FBS) and 1% penicillin (10.000 IU/mL)/streptomycin (50 mg/mL) was used to grow the […] human leukemia cell line (K562) in flasks at 37°C in a humidified environment of 5% CO2/air.
K562 cells were cultivated in DMEM with FBS 10% and penicillin–streptomycin 1%, and they were incubated at 37°C with 5% CO2 present. Using the MTT assay, the cytotoxicity of the three NCRs was evaluated. K562 cells were grown at a density of 3–4 × 10^4 cells per well in a 96-well plate and allowed to adhere for 24 hrs. […] Using a microplate reader, absorbance was measured at 540 nm. […]
Fig 7 The toxicity % of the NCRs (NCR094 and NCR992) toward leukemia cell line (K562). […] Absorbance was read at 540, and the toxicity% was calculated from four independent experiments, and the results were represented as average of the % toxicity and standard deviations from four independent experiments. […]
The cells were treated with were treated with 10-fold concentration (100, 10, 1, 0 μM) of NCR992.1 After 24 hrs exposure, MTT were added, and cells were incubated for 4 hrs. […] Absorbance was read at 540 and the toxicity% were calculated and the results were presented as means and error bars were ± SD values from four independent experiments.

SMILES: CC[C@H](C)[C@H](NC(=O)[C@H](CCSC)NC(=O)CNC(=O)[C@H](Cc1ccccc1)NC(=O)[C@H](CCC(=O)O)NC(=O)[C@H](CS)NC(=O)[C@@H](N)CCSC)C(=O)N[C@@H](CCCNC(=N)N)C(=O)N[C@@H](CCCNC(=N)N)C(=O)N[C@@H](CS)C(=O)N[C@H](C(=O)N[C@@H](CO)C(=O)N[C@@H](Cc1ccc(O)cc1)C(=O)N[C@@H](CCCCN)C(=O)N[C@@H](CS)C(=O)N[C@@H](CCC(N)=O)C(=O)N[C@@H](CS)C(=O)N[C@@H](Cc1c[nH]cn1)C(=O)N[C@@H](CCC(=O)O)C(=O)N[C@@H](C)C(=O)N[C@@H](Cc1ccc(O)cc1)C(=O)O)[C@@H](C)CC [NCR992] (H-MCEFGMIRRCISYKCQCHEAY-OH; N-terminus and C-terminus assumed)
- toxicity % toward K562: 8.54%

Source: publication PMC10845954, “Novel antimicrobial peptides identified in legume plant, Medicago truncatula” (Microbiology Spectrum, 2024)
